From patent EP0017525A1, “Derivatives of tetrahydroalstonine, their preparation and their application as medicaments” (PIERRE FABRE S.A., priority 1979, dated 1980)

Key:
[1] = system: pression artérielle et membrane nictitante; assay: Adrenolytic activity in the anaesthetised cat; assay type: in vivo; details: chat
Description: (§1) Les propriétés adrénolytiques ont été recherchées chez le chat et le chien anesthésiés vis-à-vis de la pression artérielle et de la membrane nictitante (chat).

pression artérielle = assay: Adrenolytic activity and arterial pressure in the anaesthetised dog; assay type: in vivo; details: chien, 0,1 à 10 mg/kg par voie intraveineuse
Description: as §1
Cette activité ne s'accompagne pas de diminution de la force de contraction cardiaque. L'inversion de l'hypertension à l'adrénaline commence dès la dose de 0,05 mg/kg.

[2] = Acute toxicity, intravenous route; assay type: in vivo; details: mouse, in vivo, iv; souris, voie intraveineuse; read-out: DL 50 (the source's name)
Description: (§2) Par voie injectable les composés de formule I ont été administrés jusqu'à 100 mg/kg, sans provoquer de mortalité chez le rat. A titre d'exemple, on précisera que la DL 50 par voie intraveineuse chez la souris est de 330 mg/kg pour le tétrahydroalstonate de sodium. La toxicité du tétrahydroalstonate de créatinol chez la souris,par voie intraveineuse calculée selon la méthode de Kärber est de 450 mg/kg.

[3] = system: agrégation à l'ADP, au collagène et à l'ADP + adrénaline; assay: In vitro aggregation induced by ADP, collagen and ADP + adrenaline; assay type: cell-based
Description: Les tétrahydroalstonates de sodium, de créatinol et d'imidazole sont actifs in vitro vis-à-vis de l'agrégation à l'ADP, au collagène et à l'ADP + adrénaline; les concentrations actives.variant de 1.10^-3M à 1.10^-5M selon les tests et les composés particuliers répondant à la formule générale I.

[4] = system: excrétion urinaire provoquée par l'adrénaline; details: rat; for augmentation de l'excrétion urinaire provoquée par l'adrénaline: 100 mg par voie orale; for absorption par voie orale: in vivo, po
souris = assay: Acute toxicity, intravenous route; assay type: in vivo; details: voie intraveineuse, méthode de Kärber
Description: as §2

Compound | dose pour laquelle l'adrénolyse est parfaitement nette [1] | pression artérielle (pression artérielle) | activité adrénolytique comparée à la raubasine et à la tétrahydroalstonine ([1]; voie injectable) | agrégation à l'ADP [3] | agrégation à l'ADP + adrénaline [3] | agrégation au collagène [3] | augmentation de l'excrétion urinaire provoquée par l'adrénaline [4] | absorption par voie orale [4] | further results
COC(=O)C1=COC(C)C2CN3CCc4c([nH]c5ccccc45)C3CC12 (stereo not drawn) [raubasine, reference compound] | 2 mg/kg |  |  |  |  |  |  |  | 
CC1OC=C(C(=O)O)C2CC3c4[nH]c5ccccc5c4CCN3CC12 (stereo not drawn) [tétrahydroalstonate de sodium, Tétrahydroalstonate de sodium] |  | diminution progressive de la pression artérielle proportionnelle à la dose | très nettement supérieure à celle de la raubasine et de la tétrahydroalstonine | actifs | actifs | actifs | réduisent l'augmentation de l'excrétion urinaire provoquée par l'adrénaline | bonne absorption par voie orale | solubility (Solubility; 95% ethanol, organic solvent or mixture): 70 mg/mL; solubility (Solubility; chloroform, organic solvent or mixture): 35 mg/mL; solubility (Solubility; water): 90 mg/mL; LD50 [2]: 330 mg/kg
COC(=O)C1=COC(C)C2CN3CCc4c([nH]c5ccccc45)C3CC12 (stereo not drawn) [tétrahydroalstonine, reference compound] | 0,5 mg/kg |  |  |  |  |  |  |  | 
Tétrahydroalstonate de créatinol |  | diminution progressive de la pression artérielle proportionnelle à la dose | très nettement supérieure à celle de la raubasine et de la tétrahydroalstonine | actifs | actifs | actifs | réduisent l'augmentation de l'excrétion urinaire provoquée par l'adrénaline | bonne absorption par voie orale | dose à laquelle les composés agissent (activité adrénolytique) ([1]; voie injectable): 0,1 mg/kg; toxicité (souris): 450 mg/kg; Solubilités : éthanol à 95 (95% ethanol): 5%; Solubilités : eau (water): 5%
tétrahydroalstonate d'imidazole |  |  |  | actifs | actifs | actifs |  |  | 
